Laboratory results from patent publication US20230382926A1, “COMPOUNDS AND USES THEREOF” (The University of The West Indies, priority 2022, published 2023).

Columns and labels:
[1] = system: Carbapenem resistant Acinetobacter baumannii; assay: Broth microdilution minimum inhibitory concentration; assay type: cell-based; conditions: compound alone
Procedure: (§1) Antibacterial activity of the synthesized compounds was determined following guidelines established by the Clinical and Laboratory Standards Institute M07-A10 (CLSI 2015), following the broth microdilution method. Briefly, the test articles were dissolved in 100% DMSO, diluted by 2-fold serial titrations in the same vehicle (100% DMSO), for a total of 11 concentrations. A 4 μL aliquot of each dilution was then added to 196 μL of broth medium seeded with the bacterial suspension in wells of a 96 well plate (bacterial count: 2×10^5 to 8×10^5 colony forming units/mL final). The highest test substance concentration was 1028 μg/mL, and the final vehicle concentration was 2 percent. Following incubation, the test plate was visually examined, and each well was scored for growth or complete inhibition of growth. The minimum inhibitory concentration was determined as the lowest concentration were no growth of the bacterial was observed. Each test article was assayed in duplicate.

[2] = system: Carbapenem resistant Klebsiella pneumoniae; assay: as above; assay type: cell-based; conditions: compound alone
Procedure: as §1

[3] = system: Methicillin resistant Staphylococcus aureus; assay: as above; assay type: cell-based; conditions: compound alone
Procedure: as §1

[4] = system: Multidrug resistant Pseudomonas aeruginosa; assay: as above; assay type: cell-based; conditions: compound alone
Procedure: as §1

[5] = system: Vancomycin resistant Enterococcus faecalis; assay: as above; assay type: cell-based; conditions: compound alone
Procedure: as §1

MRSA = assay: Rescue concentration of substituted phenyl azaindole derivatives; assay type: cell-based, Staphylococcus aureus; conditions: Amoxicillin fixed at 2 μg/mL
Procedure: (§2) The antibiotic adjuvant activity of the SPazaBIMs were evaluated in combination with representative antibiotics (representing 13 antibiotic classes) against the 19 pathogens strains listed in Table 3. To assess the adjuvant properties of the SP-azaBIM molecules, a modified checkerboard minimum inhibitory concentration assay was used. A fixed concentration of the respective antibiotic (susceptible breakpoint concentration) was mixed with a twofold dilution series of the test SP-azaBIM (FIG. 1). This was to determine the concentration of SP-azaBIM needed potentiate the antibiotic at a clinically susceptible breakpoint concentration. Antibiotic susceptible breakpoint concentrations for the respective bacteria were determined using Clinical Laboratory Standards Institute (CLSI) criteria M100 ED31.
(§3) In this study, only those antibiotics to which the bacterial was classed as resistant were included in the adjuvant assays. In this assay we recorded the rescue concentration of the SP-BIM for a respective antibiotic. The rescue concentration was defined as the concentration of the adjuvant that reduces the minimum inhibitory concentration (MIC) of an antibiotic to the susceptibility breakpoint.
(§4) Immediately prior to testing, the respective antibiotic and SP-azaBIM was dissolved in sterile deionised water at 20× the required test concentration. Each microtiter well was then inoculated with 180 μl of bacterial inoculum of 10^6 CFU/ml in ca-MHB, and 10 μl each if the antibiotic and SP-azaBIM was added to the plates. These plates were then incubated at 35° C. for 24 h under aerobic conditions. A similar method was followed for the fastidious pathogens except that they were cultured in ca-MHB with 5% sheep blood and 5% CO2.
(§5) Bacterial growth was visually inspected after the incubation period and the rescue concentration of the test SP-azaBIM was determined as the lowest concentration of the compound needed to reduce bacterial growth by 99.99% at the susceptible breakpoint concentration of the antibiotic. For example, CLSI states that Pseudomonas aeruginosa is susceptible to the Imipenem if the MIC is ≤2 μg mL^−1. If the bacteria can tolerate this concentration in vitro, then the bacteria has an intermediate or absolute resistance toward that antibiotic. The goal was to determine the concentration of SP-azaBIM needed to cause P. aeruginosa death at 2 μg mL^−1 of Imipenem therefore restoring susceptibility of the bacteria to toward the antibiotic.
(§6) Phenyl azaindole compounds are also tested for their adjuvant activities and the method is shown in Example 39.

K. pneumoniae = assay: as above; assay type: cell-based; conditions: for Rescue concentration, K. pneumoniae Ciprofloxacin (1 μg/mL): Ciprofloxacin fixed at 1 μg/mL; for Rescue concentration, K. pneumoniae Imipenem (1 μg/mL): Imipenem fixed at 1 μg/mL
Procedure: as §2, §3, §4, §5, §6

P. aeruginosa = assay: as above; assay type: cell-based; conditions: Imipenem fixed at 1 μg/mL
Procedure: as §2, §3, §4
Bacterial growth was visually inspected after the incubation period and the rescue concentration of the test SP-azaBIM was determined as the lowest concentration of the compound needed to reduce bacterial growth by 99.99% at the susceptible breakpoint concentration of the antibiotic. […] If the bacteria can tolerate this concentration in vitro, then the bacteria has an intermediate or absolute resistance toward that antibiotic. […]
as §6

MIC [1] [µg/mL] | MIC [2] [µg/mL] | MIC [3] [µg/mL] | MIC [4] [µg/mL] | MIC [5] [µg/mL] | Structure (SMILES) | Rescue concentration, MRSA Amoxicillin (2 μg/mL) (MRSA) [µg/mL] | Rescue concentration, K. pneumoniae Ciprofloxacin (1 μg/mL) (K. pneumoniae) [µg/mL] | Rescue concentration, K. pneumoniae Imipenem (1 μg/mL) (K. pneumoniae) [µg/mL] | Rescue concentration, P. aeruginosa Imipenem (1 μg/mL) (P. aeruginosa) [µg/mL]
< 1020 | < 1020 | < 1020 | < 1020 | < 1020 | O=[N+]([O-])c1cccc(C(O)c2c[nH]c3ncc(Cl)cc23)c1 (stereo not drawn) [3NO2-5Cl-7aza-OH, (5-chloro-1H-pyrrolo[2,3-b]pyridin-3-yl)(3-nitrophenyl)methanol] | <256 | <256 | <256 | <256
< 1020 | < 1020 | < 1020 | < 1020 | < 1020 | O=[N+]([O-])c1ccc(C(O)c2c[nH]c3ncc(F)cc23)cc1 (stereo not drawn) [4NO2-5Fl-7aza-OH, (5-fluoro-1H-pyrrolo[2,3-b]pyridin-3-yl)(4-nitrophenyl)methanol] | 16 | <256 | <256 | <256
< 1020 | < 1020 | < 1020 | < 1020 | < 1020 | O=[N+]([O-])c1ccccc1C(O)c1c[nH]c2ncccc12 (stereo not drawn) [Compound 2NO2-7aza-OH, (2-nitrophenyl)(1H-pyrrolo[2,3-b]pyridin-3-yl)methanol] | 256 | <256 | <256 | <256
< 1020 | < 1020 | < 1020 | < 1020 | < 1020 | Oc1ccc(C(O)c2c[nH]c3cnccc23)cc1 (stereo not drawn) [Compound 4OH-6aza-OH, 4-(hydroxy(1H-pyrrolo[2,3-c]pyridin-3-yl)methyl)phenol] | 32 | <256 | <256 | 256
< 1020 | < 1020 | < 1020 | < 1020 | < 1020 | O=[N+]([O-])c1ccc(C(O)c2c[nH]c3cnccc23)cc1 (stereo not drawn) [Compound 4NO2-6aza-OH, (4-nitrophenyl)(1H-pyrrolo[2,3-c]pyridin-3-yl)methanol] | 128 | 128 | 128 | <256
< 1020 | < 1020 | < 1020 | < 1020 | < 1020 | O=[N+]([O-])c1ccc(C(O)c2c[nH]c3c(Cl)nccc23)cc1 (stereo not drawn) [4NO2-7Cl-6aza-OH, (7-chloro-1H-pyrrolo[2,3-c]pyridin-3-yl)(4-nitrophenyl)methanol] | 8 | <256 | <256 | <256
< 1020 | < 1020 | < 1020 | < 1020 | < 1020 | OC(c1ccc(Br)cc1)c1c[nH]c2cnc(Br)cc12 (stereo not drawn) [4Br-5Br-6aza-OH, (5-bromo-1H-pyrrolo[2,3-c]pyridin-3-yl)(4-bromophenyl)methanol] | 4 | <256 | <256 | <256
< 1020 | < 1020 | < 1020 | < 1020 | < 1020 | O=[N+]([O-])c1cccc(C(O)c2c[nH]c3cnccc23)c1 (stereo not drawn) [Compound 3NO2-6aza-OH, (3-nitrophenyl)(1H-pyrrolo[2,3-c]pyridin-3-yl)methanol] | 64 | 128 | 256 | <256
< 1020 | < 1020 | < 1020 | < 1020 | < 1020 | O=[N+]([O-])c1ccc(C(O)c2c[nH]c3ncccc23)cc1 (stereo not drawn) [Compound 4NO2-7aza-OH, (4-nitrophenyl)(1H-pyrrolo[2,3-b]pyridin-3-yl)methanol] | 32 | <256 | <256 | <256
< 1020 | < 1020 | < 1020 | < 1020 | < 1020 | O=Cc1cccc(C(O)c2c[nH]c3cnccc23)c1 (stereo not drawn) [ISO-6aza-OH, 3-(hydroxy(1H-pyrrolo[2,3-c]pyridin-3-yl)methyl)benzaldehyde] | 64 | <256 | <256 | <256
< 1020 | < 1020 | < 1020 | < 1020 | < 1020 | O=[N+]([O-])c1ccc(C(O)c2c[nH]c3ncc(Cl)cc23)cc1 (stereo not drawn) [4NO2-5Cl-7aza-OH, (5-chloro-1H-pyrrolo[2,3-b]pyridin-3-yl)(4-nitrophenyl)methanol] | 32 | <256 | <256 | <256
< 1020 | < 1020 | < 1020 | < 1020 | < 1020 | O=[N+]([O-])c1cccc(C(O)c2c[nH]c3c(Cl)nccc23)c1 (stereo not drawn) [3NO2-7Cl-6aza, (7-chloro-1H-pyrrolo[2,3-c]pyridin-3-yl)(3-nitrophenyl)methanol] | 32 | <256 | <256 | <256
< 1020 | < 1020 | < 1020 | < 1020 | < 1020 | Oc1ccc(C(c2c[nH]c3ncc(Cl)cc23)c2c[nH]c3ncc(Cl)cc23)cc1 [4OH-Bis 5Cl 7aza, 4-(bis(5-chloro-1H-pyrrolo[2,3-b]pyridin-3-yl)methyl)phenol] | 2 | <256 | <256 | <256
< 1020 | < 1020 | < 1020 | < 1020 | < 1020 | OC(c1ccc(Br)cc1)c1c[nH]c2ncc(Cl)cc12 (stereo not drawn) [4Br-5Cl-7aza-OH, (4-bromophenyl)(5-chloro-1H-pyrrolo[2,3-b]pyridin-3-yl)methanol] | 8 | 32 | 32 | 256
